Legend:
[1] = Reaction kinetics of N-oxides with B2pin2, stopped-flow fluorometry, pseudo-first order; conditions: reaction with B2pin2 in PBS (pH 7.4), pseudo-first order conditions
Description: Data represent the mean of experiments performed in triplicate. […] Data represent the mean of experiments performed in triplicate. Error bars represent a standard deviation. […] Data represent the mean of experiments performed in triplicate. […] Data represent the mean of experiments done in triplicate. Error bars represent a standard deviation.
The kinetics of the reaction were first evaluated using N-oxide 6 (FIG. 2, panel A).
The reaction was then performed on a biomolecule. […] It should be noted, however, that pseudo-first-order kinetics performed under saturating conditions can obscure important information regarding the deactivation of the diboron reagent through sequestration or off-target reactivity. To address this issue, a 64-kDa GFP-HaloTag fusion protein was expressed, ligated to compound 10 to produce GFP-HaloTag-10.

[2] = system: HEK293T cells transiently transfected with a cytosolic GFP-HaloTag fusion construct; test: Intracellular uncaging and membrane permeability in live cells, confocal microscopy; assay type: cell-based, human
Description: Green (left column), red (middle column), and blue (not shown) channels represent GFP, TAMRA, and Hoechst 33342 fluorescence, respectively. The merged image (right column) is a composite of all three channels with a phase contrast image.
HEK293T cells were transiently transfected with a cytosolic GFP-HaloTag fusion construct, then treated with 100 µM compound 10.

[3] = Reaction kinetics of amine N-oxide with p-nitrophenylboronic acid in water, UV/vis absorption of p-nitrophenol, pseudo-first order; conditions: reaction with p-nitrophenylboronic acid (2) in water, room temperature
Description: A first experiment was performed to determine the kinetic parameters for the reaction between TMAO (1) and p-nitrophenylboronic acid (2) in water (see FIG. 1, panel A). Reaction progress was monitored by UV/vis absorption of product p-nitrophenol (3) under pseudo-first order conditions. A second-order rate constant of 2.83±0.05×10^−6 M^−1s^−1 was determined for the reaction at room temperature, several orders of magnitude below current standards of bioorthogonal reactivity (see e.g., Lang et al., ACS Chem. Biol. 2014, 9, 16; McKay et al. Chem. Biol. 2014, 21, 1075; Patterson et al., ACS Chem. Biol. 2014, 9, 592; (e) Sletten et al., Angew. Chem. Int. Ed. 2009, 48, 6974) but nonetheless a starting point for kinetic optimization.

HaloTag Rhodol N-Oxide [compound 8]
second-order rate constant [1]: 1.71±0.043×10^3 M^−1s^−1

5(6)-HaloTag Tetramethylrhodamine Bis-N-Oxide [compound 10]
TAMRA signal upon addition of B2pin2 ([2]; cells loaded with compound, washed, B2pin2 0 μM, 10 μM, 100 μM or 1 mM in media for 45 min): increased | membrane permeability ([2]; live HEK293T cells): cell permeable

C[N+](C)(C)[O-] [TMAO, Trimethylamine N-oxide]
second-order rate constant [3]: 2.83±0.05×10^−6 M^−1s^−1

Source: patent US20180215783A1, “BIOORTHOGONAL REACTION OF AN AMINE N-OXIDE AND A BORON AGENT” (The Regents of the University of California, priority 2015, published 2018)
